Measured values published in patent US20230085307A1, “PYRIDAZINONE COMPOUND AND HERBICIDE” (NISSAN CHEMICAL CORPORATION, priority 2019, published 2023).

Tests used:
barnyard grass [1] = experiment: Test Example 3: herbicidal effect by foliage application, Wagner pot (Table 18, symbol H); format: in vivo, barnyard grass (Echinochloa crus-galli)
Outline: (§1)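 Plants were sown in alluvial soil held under 0.1–0.5 cm standing water and grown 14 days in a greenhouse at 25–30 °C. An emulsifiable formulation, water-diluted to the set dose, was then sprayed onto the foliage, and effects were scored three weeks later using previously defined criteria.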

Chinese sprangletop = experiment: Test Example 3: herbicidal effect by foliage application, Wagner pot (Table 18, symbol D); format: in vivo, chinese sprangletop (Leptochloa chinensis)
Outline: as §1

rice flat sedge = experiment: Test Example 3: herbicidal effect by foliage application, Wagner pot (Table 18, symbol E); format: in vivo, rice flat sedge (Cyperus iria); settings: 320 g/ha
Outline: as §1

southern crabgrass [2] = experiment: Test Example 4: herbicidal effect by soil treatment (Table 19, symbol F); format: in vivo, southern crabgrass (Digitaria ciliaris); settings: amount of applied herbicide 320 g/ha
Outline: (§2)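 In this soil treatment, the formulated compound reached the seeds only through the soil: seeds were buried about 1.5 cm deep in sterilized diluvial soil, then the diluted emulsion was sprayed over the surface. After three weeks at 25° C. to 30° C. in a greenhouse, effects were graded on criteria from an earlier test.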

green foxtail [3] = experiment: Test Example 4: herbicidal effect by soil treatment (Table 19, symbol G); format: in vivo, green foxtail (Setaria viridis); settings: amount of applied herbicide 320 g/ha
Outline: as §2

barnyard grass [4] = experiment: Test Example 4: herbicidal effect by soil treatment (Table 19, symbol H); format: in vivo, barnyard grass (Echinochloa crus-galli); settings: amount of applied herbicide 320 g/ha
Outline: as §2

wild oat [5] = experiment: Test Example 4: herbicidal effect by soil treatment (Table 19, symbol I); format: in vivo, wild oat (Avena fatua); settings: amount of applied herbicide 320 g/ha
Outline: as §2

blackgrass [6] = experiment: Test Example 4: herbicidal effect by soil treatment (Table 19, symbol J); format: in vivo, blackgrass (Alopecurus myosuroides); settings: amount of applied herbicide 320 g/ha
Outline: as §2

Italian ryegrass [7] = experiment: Test Example 4: herbicidal effect by soil treatment (Table 19, symbol K); format: in vivo, Italian ryegrass (Lolium multiflorum); settings: amount of applied herbicide 320 g/ha
Outline: as §2

windgrass [8] = experiment: Test Example 4: herbicidal effect by soil treatment (Table 19, symbol L); format: in vivo, windgrass (Apera spica-venti); settings: amount of applied herbicide 320 g/ha
Outline: as §2

velvetleaf [9] = experiment: Test Example 4: herbicidal effect by soil treatment (Table 19, symbol M); format: in vivo, velvetleaf (Abutilon theophrasti); settings: amount of applied herbicide 320 g/ha
Outline: as §2

redroot pigweed [10] = experiment: Test Example 4: herbicidal effect by soil treatment (Table 19, symbol N); format: in vivo, redroot pigweed (Amaranthus retroflexus); settings: amount of applied herbicide 320 g/ha
Outline: as §2

lambsquarters [11] = experiment: Test Example 4: herbicidal effect by soil treatment (Table 19, symbol O); format: in vivo, lambsquarters (Chenopodium album); settings: amount of applied herbicide 320 g/ha
Outline: as §2

chickweed [12] = experiment: Test Example 4: herbicidal effect by soil treatment (Table 19, symbol P); format: in vivo, common chickweed (Stellaria media); settings: amount of applied herbicide 320 g/ha
Outline: as §2

persian speedwell [13] = experiment: Test Example 4: herbicidal effect by soil treatment (Table 19, symbol R); format: in vivo, Persian speedwell (Veronica persica); settings: amount of applied herbicide 320 g/ha
Outline: as §2

southern crabgrass [14] = experiment: Test Example 5: herbicidal effect by foliage application, plastic box (Table 20, symbol F); format: in vivo, southern crabgrass (Digitaria ciliaris); settings: evaluated three weeks after application
Outline: (§3)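 Plants were sown into sterilized diluvial soil under about 1.5 cm cover and kept in a greenhouse at 25° C. to 30° C. Fourteen days on, foliage received an even spray of the diluted emulsion. Herbicidal or crop effect was judged three weeks afterwards.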

green foxtail [15] = experiment: Test Example 5: herbicidal effect by foliage application, plastic box (Table 20, symbol G); format: in vivo, green foxtail (Setaria viridis); settings: evaluated three weeks after application
Outline: as §3

barnyard grass [16] = experiment: Test Example 5: herbicidal effect by foliage application, plastic box (Table 20, symbol H); format: in vivo, barnyard grass (Echinochloa crus-galli); settings: evaluated three weeks after application
Outline: as §3

wild oat [17] = experiment: Test Example 5: herbicidal effect by foliage application, plastic box (Table 20, symbol I); format: in vivo, wild oat (Avena fatua); settings: evaluated three weeks after application
Outline: as §3

blackgrass [18] = experiment: Test Example 5: herbicidal effect by foliage application, plastic box (Table 20, symbol J); format: in vivo, blackgrass (Alopecurus myosuroides); settings: evaluated three weeks after application
Outline: as §3

Italian ryegrass [19] = experiment: Test Example 5: herbicidal effect by foliage application, plastic box (Table 20, symbol K); format: in vivo, Italian ryegrass (Lolium multiflorum); settings: evaluated three weeks after application
Outline: as §3

windgrass [20] = experiment: Test Example 5: herbicidal effect by foliage application, plastic box (Table 20, symbol L); format: in vivo, windgrass (Apera spica-venti); settings: evaluated three weeks after application
Outline: as §3

velvetleaf [21] = experiment: Test Example 5: herbicidal effect by foliage application, plastic box (Table 20, symbol M); format: in vivo, velvetleaf (Abutilon theophrasti); settings: evaluated three weeks after application
Outline: as §3

redroot pigweed [22] = experiment: Test Example 5: herbicidal effect by foliage application, plastic box (Table 20, symbol N); format: in vivo, redroot pigweed (Amaranthus retroflexus); settings: evaluated three weeks after application
Outline: as §3

lambsquarters [23] = experiment: Test Example 5: herbicidal effect by foliage application, plastic box (Table 20, symbol O); format: in vivo, lambsquarters (Chenopodium album); settings: evaluated three weeks after application
Outline: as §3

chickweed [24] = experiment: Test Example 5: herbicidal effect by foliage application, plastic box (Table 20, symbol P); format: in vivo, common chickweed (Stellaria media); settings: evaluated three weeks after application
Outline: as §3

false cleavers = experiment: Test Example 5: herbicidal effect by foliage application, plastic box (Table 20, symbol Q); format: in vivo, false cleavers (Galium spurium); settings: evaluated three weeks after application
Outline: as §3

persian speedwell [25] = experiment: Test Example 5: herbicidal effect by foliage application, plastic box (Table 20, symbol R); format: in vivo, Persian speedwell (Veronica persica); settings: evaluated three weeks after application
Outline: as §3

[26] = amount of applied herbicide 320 g/ha, foliage application after 14-day growth
[27] = amount of applied herbicide 320 g/ha
[28] = foliage application, AAH 320 g/ha

CCCC(=O)Oc1c(C)nn(C)c(=O)c1-c1c(-c2ccc(F)cc2)sc2cc(F)c(F)cc12 [5-002]
herbicidal effect on barnyard grass (H) (barnyard grass [1]; 320 g/ha): 4 (Herbicidal rate of 70% or more and less than 90%) | herbicidal effect on Chinese sprangletop (D) (Chinese sprangletop; 320 g/ha): 3 (Herbicidal rate of 40% or more and less than 70%) | herbicidal effect on rice flat sedge (E) (rice flat sedge): 0 (Herbicidal rate of 5% or less (almost no effect)) | F: southern crabgrass, herbicidal effect grade (southern crabgrass [2]): 0 (Herbicidal rate of 5% or less (almost no effect)) | G: green foxtail, herbicidal effect grade (green foxtail [3]): 4 (Herbicidal rate of 70% or more and less than 90%) | H: barnyard grass, herbicidal effect grade (barnyard grass [4]): 3 (Herbicidal rate of 40% or more and less than 70%) | I: wild oat, herbicidal effect grade (wild oat [5]): 3 (Herbicidal rate of 40% or more and less than 70%) | J: blackgrass, herbicidal effect grade (blackgrass [6]): 2 (Herbicidal rate of 20% or more and less than 40%) | K: Italian ryegrass, herbicidal effect grade (Italian ryegrass [7]): 5 (Herbicidal rate of 90% or more (almost completely withered)) | L: windgrass, herbicidal effect grade (windgrass [8]): 5 (Herbicidal rate of 90% or more (almost completely withered)) | M: velvetleaf, herbicidal effect grade (velvetleaf [9]): 3 (Herbicidal rate of 40% or more and less than 70%) | N: redroot pigweed, herbicidal effect grade (redroot pigweed [10]): 5 (Herbicidal rate of 90% or more (almost completely withered)) | O: lambsquarters, herbicidal effect grade (lambsquarters [11]): 5 (Herbicidal rate of 90% or more (almost completely withered)) | P: chickweed, herbicidal effect grade (chickweed [12]): 4 (Herbicidal rate of 70% or more and less than 90%) | R: persian speedwell, herbicidal effect grade (persian speedwell [13]): 5 (Herbicidal rate of 90% or more (almost completely withered)) | Herbicidal effect by foliage application, F: southern crabgrass (southern crabgrass [14]; [26]): 5 (Herbicidal rate of 90% or more (almost completely withered)) | Herbicidal effect by foliage application, G: green foxtail (green foxtail [15]; [26]): 5 (Herbicidal rate of 90% or more (almost completely withered)) | Herbicidal effect by foliage application, H: barnyard grass (barnyard grass [16]; [26]): 4 (Herbicidal rate of 70% or more and less than 90%) | Herbicidal effect by foliage application, I: wild oat (wild oat [17]; [26]): 4 (Herbicidal rate of 70% or more and less than 90%) | Herbicidal effect by foliage application, J: blackgrass (blackgrass [18]; [26]): 4 (Herbicidal rate of 70% or more and less than 90%) | Herbicidal effect by foliage application, K: Italian ryegrass (Italian ryegrass [19]; [26]): 5 (Herbicidal rate of 90% or more (almost completely withered)) | Herbicidal effect by foliage application, L: windgrass (windgrass [20]; [26]): 5 (Herbicidal rate of 90% or more (almost completely withered)) | Herbicidal effect by foliage application, M: velvetleaf (velvetleaf [21]; [26]): 5 (Herbicidal rate of 90% or more (almost completely withered)) | Herbicidal effect by foliage application, N: redroot pigweed (redroot pigweed [22]; [26]): 5 (Herbicidal rate of 90% or more (almost completely withered)) | Herbicidal effect by foliage application, O: lambsquarters (lambsquarters [23]; [26]): 5 (Herbicidal rate of 90% or more (almost completely withered)) | Herbicidal effect by foliage application, P: chickweed (chickweed [24]; [26]): 5 (Herbicidal rate of 90% or more (almost completely withered)) | Herbicidal effect by foliage application, Q: false cleavers (false cleavers; [26]): 5 (Herbicidal rate of 90% or more (almost completely withered)) | Herbicidal effect by foliage application, R: persian speedwell (persian speedwell [25]; [26]): 5 (Herbicidal rate of 90% or more (almost completely withered))

Cc1nn(C)c(=O)c(-c2c(-c3ccc(S(=O)(=O)C(C)C)cc3)sc3ccc(F)cc23)c1O [2-259]
herbicidal effect on H: barnyard grass (barnyard grass [1]; [27]): 4 (Herbicidal rate of 70% or more and less than 90%) | herbicidal effect on D: Chinese sprangletop (Chinese sprangletop; [27]): 3 (Herbicidal rate of 40% or more and less than 70%) | herbicidal effect on F: southern crabgrass (southern crabgrass [2]): 0 (Herbicidal rate of 5% or less (almost no effect)) | herbicidal effect on G: green foxtail (green foxtail [3]): 1 (Herbicidal rate of 5% or more and less than 20%) | herbicidal effect on H: barnyard grass (barnyard grass [4]): 0 (Herbicidal rate of 5% or less (almost no effect)) | herbicidal effect on I: wild oat (wild oat [5]): 0 (Herbicidal rate of 5% or less (almost no effect)) | herbicidal effect on J: blackgrass (blackgrass [6]): 4 (Herbicidal rate of 70% or more and less than 90%) | herbicidal effect on K: Italian ryegrass (Italian ryegrass [7]): 4 (Herbicidal rate of 70% or more and less than 90%) | herbicidal effect on L: windgrass (windgrass [8]): 0 (Herbicidal rate of 5% or less (almost no effect)) | herbicidal effect on M: velvetleaf (velvetleaf [9]): 3 (Herbicidal rate of 40% or more and less than 70%) | herbicidal effect on N: redroot pigweed (redroot pigweed [10]): 4 (Herbicidal rate of 70% or more and less than 90%) | herbicidal effect on O: lambsquarters (lambsquarters [11]): 3 (Herbicidal rate of 40% or more and less than 70%) | herbicidal effect on P: chickweed (chickweed [12]): 1 (Herbicidal rate of 5% or more and less than 20%) | herbicidal effect on R: persian speedwell (persian speedwell [13]): 5 (Herbicidal rate of 90% or more (almost completely withered)) | F: southern crabgrass, herbicidal effect (criteria 0-5) (southern crabgrass [14]; [28]): 4 (Herbicidal rate of 70% or more and less than 90%) | G: green foxtail, herbicidal effect (criteria 0-5) (green foxtail [15]; [28]): 3 (Herbicidal rate of 40% or more and less than 70%) | H: barnyard grass, herbicidal effect (criteria 0-5) (barnyard grass [16]; [28]): 3 (Herbicidal rate of 40% or more and less than 70%) | I: wild oat, herbicidal effect (criteria 0-5) (wild oat [17]; [28]): 4 (Herbicidal rate of 70% or more and less than 90%) | J: blackgrass, herbicidal effect (criteria 0-5) (blackgrass [18]; [28]): 4 (Herbicidal rate of 70% or more and less than 90%) | K: Italian ryegrass, herbicidal effect (criteria 0-5) (Italian ryegrass [19]; [28]): 4 (Herbicidal rate of 70% or more and less than 90%) | L: windgrass, herbicidal effect (criteria 0-5) (windgrass [20]; [28]): 1 (Herbicidal rate of 5% or more and less than 20%) | M: velvetleaf, herbicidal effect (criteria 0-5) (velvetleaf [21]; [28]): 4 (Herbicidal rate of 70% or more and less than 90%) | N: redroot pigweed, herbicidal effect (criteria 0-5) (redroot pigweed [22]; [28]): 5 (Herbicidal rate of 90% or more (almost completely withered)) | O: lambsquarters, herbicidal effect (criteria 0-5) (lambsquarters [23]; [28]): 4 (Herbicidal rate of 70% or more and less than 90%) | P: chickweed, herbicidal effect (criteria 0-5) (chickweed [24]; [28]): 5 (Herbicidal rate of 90% or more (almost completely withered)) | Q: false cleavers, herbicidal effect (criteria 0-5) (false cleavers; [28]): 4 (Herbicidal rate of 70% or more and less than 90%) | R: persian speedwell, herbicidal effect (criteria 0-5) (persian speedwell [25]; [28]): 5 (Herbicidal rate of 90% or more (almost completely withered))
